Measurements: PMC10895678 (Journal of Medicinal Chemistry, 2024)
≈ marks a conversion by molar mass, not a printed value. Like-named read-outs stand apart in the source and are kept apart here.

Key:
C. glutamicum = assay: MIC, resazurin assay, C. glutamicum wild type; type: cell-based, Corynebacterium glutamicum; conditions: for C. glutamicum MIC: modified Gompertz function; for MIC50 C. glutamicum / MIC99 C. glutamicum: supplementary MIC data file
CYP2D6 = CYP2D6 (Homo sapiens, UniProt P10635); assay: biochemical; type: in vitro ADME; conditions: human liver microsomes
Procedure: (§1) Compounds were solubilized to 10 mM in DMSO. The BGAz compounds were incubated at concentrations of 0.003, 0.009, 0.03, 0.08, 0.25, 0.74, 2.2, 6.7, and 20 μM with CYP1A2, CYP2C9, CYP2C19, and CYP2D6 at 37 °C in the presence of the drug-like probe substrate […] the Phase 1 cofactor NADPH (1 mM). The formation of metabolites of the drug-like probe substrates in the absence and presence of the BGAz compound was monitored by LC-MS/MS, and the IC50 value was determined. All assays had two replicates per compound and included a positive control inhibitor.

CYP2C9 = CYP2C9 (Homo sapiens, UniProt P11712); assay: biochemical; type: in vitro ADME; conditions: for IC50: human liver microsomes
Procedure: as §1

CYP2C19 = CYP2C19 (Homo sapiens, UniProt P33261); assay: biochemical; type: in vitro ADME; conditions: for CYP2C19 inhibition (in words) / IC50: human liver microsomes
Procedure: as §1

M. smegmatis = assay: MIC determination, resazurin end point assay, M. smegmatis; type: cell-based, Mycobacterium smegmatis; conditions: Mycolicibacterium smegmatis; for MIC50: read-out: MIC50 smegmatis
CYP1A2 = target: T1, CYP1A2 (Homo sapiens, UniProt P05177); assay: Cytochrome P450 inhibition, CYP1A2; type: in vitro ADME; conditions: human liver microsomes
T1 construct: from tissue; host or cells: human liver microsomes
T1 sequence (P05177 1-516): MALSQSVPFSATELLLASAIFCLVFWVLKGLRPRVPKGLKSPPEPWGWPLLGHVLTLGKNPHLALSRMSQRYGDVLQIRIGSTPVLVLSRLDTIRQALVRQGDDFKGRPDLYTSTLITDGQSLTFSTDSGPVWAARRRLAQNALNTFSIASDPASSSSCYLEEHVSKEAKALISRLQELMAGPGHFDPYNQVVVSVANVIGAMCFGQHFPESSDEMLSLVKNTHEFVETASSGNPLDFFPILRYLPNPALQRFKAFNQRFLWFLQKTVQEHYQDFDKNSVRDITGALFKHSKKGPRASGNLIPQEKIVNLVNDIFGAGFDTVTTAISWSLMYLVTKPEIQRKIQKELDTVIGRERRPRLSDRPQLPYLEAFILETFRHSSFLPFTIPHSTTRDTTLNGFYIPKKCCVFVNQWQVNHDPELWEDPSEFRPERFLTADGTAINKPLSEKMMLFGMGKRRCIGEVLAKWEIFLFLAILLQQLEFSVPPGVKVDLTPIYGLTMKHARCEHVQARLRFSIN
Procedure: as §1

[1] = Caco-2 permeability and efflux; type: in vitro ADME; conditions: human, pH 7.4, 2 h; for efflux ratio at 2 h, 10 μM: Caco-2, pH 7.4, 10 μM; for Papp B→A at 2 h, 10 μM: Caco-2, read-out: Caco-2 B-A Paap
Procedure: Compounds were solubilized (10 mM in DMSO), and the CacoReady Kit from ReadyCell S.L. (Barcelona, Spain) was used to determine compound permeability. Differentiated and polarized Caco-2 cells (21-day system) were plated on a 96-transwell permeable system as a single monolayer to allow for automated high throughput screening of compounds, and 10 μM BGAz compound was added to the system in HBSS buffer (pH 7.4) and incubated for 2 h at 37 °C in a CO2 incubator. Lucifer yellow was used as a cell monolayer integrity marker. Drug transport was assessed in both directions [apical to basolateral (A-B) and basolateral to apical (B-A)] across the cell monolayer. […] The BGAz compound concentrations were quantified using a calibration curve following analysis by LC-MS/MS, and the apparent permeability coefficient (Papp) and efflux ratio of the compound across the monolayer were calculated. The efflux ratio is used as an indicator of active efflux. The permeability coefficient (Papp) was calculated from the following equation: [drawing 2] 2 where dQ/dt is the amount of compound in the basal (A-B) or apical (B-A) compartment as a function of time (nmol/s). C0 is the initial concentration in the donor (apical or basal) compartment (Mean of T = 0) (nmol/mL) and A is the area of the transwell (cm^2).
The efflux ratio was then calculated as [drawing 3] 3
All experiments were performed in triplicate, and the MDR1 efflux markers Digoxin, quinidine, and […] were used as positive controls.

[2] = Mouse PPB, rapid equilibrium dialysis; type: in vitro ADME; conditions: mouse plasma (100%), RED, 37 °C
Procedure: Compounds were solubilized (10 mM in DMSO), and rapid equilibrium dialysis (RED) was used to measure the percentage binding to mouse plasma protein of the BGAz compounds at a final concentration of 5 μM. The BGAz compound was incubated in 100% mouse plasma and dialyzed against buffer in a RED device for 4 h at 37 °C in a 5% CO2 incubator, with continuous shaking at 200 rpm. Samples were matrix-matched and analyzed by LC-MS/MS against a six-point standard curve prepared with 100% plasma. All experiments were performed in triplicate.

[3] = Kinetic solubility (turbidimetry); type: physicochemical; conditions: PBS pH 7.4, 1% DMSO, 25 °C
[4] = preincubated 30 min prior to NADPH, read-out: CYP2D6 [pre-inc] IC50
[5] = without pre-incubation, read-out: CYP2D6 IC50
[6] = preincubated 30 min prior to NADPH, read-out: CYP2C9 [pre-inc] IC50
[7] = without pre-incubation, read-out: CYP2C9 IC50
[8] = preincubated 30 min prior to NADPH, read-out: CYP2C19 [pre-inc] IC50
[9] = without pre-incubation, read-out: CYP2C19 IC50
[10] = resazurin end point assay, modified Gompertz function, three biological replicates, read-out: M. smeg. MIC99
[11] = supplementary MIC data file, read-out: MIC99 smegmatis
[12] = preincubated 30 min prior to NADPH, read-out: CYP1A2 [pre-inc] IC50
[13] = without pre-incubation, read-out: CYP1A2 IC50

CYP2D6, sequence (P10635 whole entry): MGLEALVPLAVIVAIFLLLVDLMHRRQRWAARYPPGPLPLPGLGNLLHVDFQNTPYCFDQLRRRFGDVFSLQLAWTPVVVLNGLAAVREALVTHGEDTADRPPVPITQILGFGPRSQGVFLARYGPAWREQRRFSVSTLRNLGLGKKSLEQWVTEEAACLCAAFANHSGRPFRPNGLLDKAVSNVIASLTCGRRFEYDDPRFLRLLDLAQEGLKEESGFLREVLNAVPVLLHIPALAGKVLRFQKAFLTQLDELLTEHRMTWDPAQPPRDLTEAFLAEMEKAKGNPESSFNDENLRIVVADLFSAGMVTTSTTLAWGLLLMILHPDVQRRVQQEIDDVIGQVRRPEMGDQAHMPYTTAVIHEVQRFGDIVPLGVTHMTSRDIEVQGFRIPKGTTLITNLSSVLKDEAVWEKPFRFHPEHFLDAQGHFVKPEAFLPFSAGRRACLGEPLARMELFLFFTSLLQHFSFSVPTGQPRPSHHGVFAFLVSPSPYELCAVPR
CYP2C19, sequence (P33261 whole entry): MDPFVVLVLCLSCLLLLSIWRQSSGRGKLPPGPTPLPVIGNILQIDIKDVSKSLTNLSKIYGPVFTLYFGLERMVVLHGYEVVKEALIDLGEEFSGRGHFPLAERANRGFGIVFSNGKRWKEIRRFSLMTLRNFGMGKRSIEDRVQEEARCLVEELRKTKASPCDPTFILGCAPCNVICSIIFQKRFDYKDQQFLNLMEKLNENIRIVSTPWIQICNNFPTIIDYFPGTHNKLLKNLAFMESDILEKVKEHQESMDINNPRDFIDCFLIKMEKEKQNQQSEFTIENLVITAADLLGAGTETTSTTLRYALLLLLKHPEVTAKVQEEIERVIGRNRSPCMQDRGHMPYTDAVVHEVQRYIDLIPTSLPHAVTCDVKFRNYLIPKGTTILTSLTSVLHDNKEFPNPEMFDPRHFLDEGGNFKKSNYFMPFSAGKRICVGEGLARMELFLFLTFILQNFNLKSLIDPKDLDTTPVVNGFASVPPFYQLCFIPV
CYP2C9, sequence (P11712 whole entry): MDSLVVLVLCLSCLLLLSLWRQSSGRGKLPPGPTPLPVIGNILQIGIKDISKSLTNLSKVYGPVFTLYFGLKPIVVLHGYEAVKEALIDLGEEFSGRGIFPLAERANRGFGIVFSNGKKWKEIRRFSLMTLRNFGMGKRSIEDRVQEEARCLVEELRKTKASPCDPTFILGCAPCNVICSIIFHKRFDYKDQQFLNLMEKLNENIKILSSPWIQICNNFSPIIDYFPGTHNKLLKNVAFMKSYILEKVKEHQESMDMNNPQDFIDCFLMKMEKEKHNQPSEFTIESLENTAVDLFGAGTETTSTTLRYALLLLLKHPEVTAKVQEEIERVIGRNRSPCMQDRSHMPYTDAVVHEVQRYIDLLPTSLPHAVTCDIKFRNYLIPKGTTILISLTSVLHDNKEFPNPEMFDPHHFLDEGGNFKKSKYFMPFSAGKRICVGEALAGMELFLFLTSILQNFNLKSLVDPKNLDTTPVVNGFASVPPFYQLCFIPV

| SMILES | C. glutamicum MIC (C. glutamicum) | CYP2D6 inhibition (in words) (CYP2D6) | IC50 (CYP2D6; [4]) | IC50 (CYP2D6; [5]) | IC50 (CYP2C9; [6]) | IC50 (CYP2C9; [7]) | CYP2C19 inhibition (in words) (CYP2C19) | IC50 (CYP2C19; [8]) | IC50 (CYP2C19; [9]) | MIC99 (M. smegmatis; [10]) | MIC50 (M. smegmatis; supplementary MIC data file) | MIC99 (M. smegmatis; [11]) | IC50 (CYP1A2; [12]) | IC50 (CYP1A2; [13]) | efflux ratio at 2 h, 10 μM [1] | Papp B→A at 2 h, 10 μM [1] | fraction unbound at 4 h, 5 μM [2] | solubility kinetic at 5 min [3] | MIC50 C. glutamicum (C. glutamicum) | MIC99 C. glutamicum (C. glutamicum) | also measured |
| --- | --- | --- | --- | --- | --- | --- | --- | --- | --- | --- | --- | --- | --- | --- | --- | --- | --- | --- | --- | --- | --- |
| CNCC1CC(c2ccc(OC(F)(F)F)cc2)N1Cc1ccccc1OC(F)(F)F (centres unmarked) [BGAz-005] | 12 µM | significant inhibition | 0.01 µM | 0.06 µM | > 20 µM | > 20 µM | negligible inhibition | 15.8 µM | > 20 µM | 24 µM (≈ 10.4 µg/mL) | 9 µM (≈ 3.91 µg/mL) | 24 µM (≈ 10.4 µg/mL) | > 20 µM | > 20 µM | < 1 | 1.4 ×10⁻⁶ cm/s | < 0.01 | 117 µM (≈ 50.8 µg/mL) |  |  |  |
| Brc1cc(Br)cc(C2CC(CN3CCCC3)N2Cc2ccccc2Br)c1 (centres unmarked) [BGAz-004] | 20 µM | significant inhibition | 1.05 µM | 1.97 µM | 17.8 µM | > 20 µM |  | 2.04 µM | > 15.1 µM | 14 µM (≈ 7.6 µg/mL) | 6 µM (≈ 3.26 µg/mL) | 14 µM (≈ 7.6 µg/mL) | > 20 µM | > 20 µM | 1.4 | 0.5 ×10⁻⁶ cm/s | < 0.01 | 9 µM (≈ 4.89 µg/mL) | 12 µM (≈ 6.52 µg/mL) | 12 µM (≈ 6.52 µg/mL) | CYP2C9 inhibition (in words) (CYP2C9; preincubated for 30 min prior to the addition of NADPH): minimal CYP2C9 inhibition; CYP2C19 inhibition (in words), preincubated (CYP2C19; preincubated for 30 min prior to initiation of catalysis): strong inhibitory activity |
| FC(F)(F)Oc1ccc(C2CC(CN3CCCC3)N2Cc2ccccc2OC(F)(F)F)cc1 (centres unmarked) [BGAz-002] | 50 µM | significant inhibition | 0.08 µM | 0.19 µM | > 20 µM | > 20 µM | negligible inhibition | > 20 µM | > 20 µM | 32 µM (≈ 15.2 µg/mL) |  |  | > 20 µM | > 20 µM | 1.2 | 2.8 ×10⁻⁶ cm/s | < 0.01 | 57 µM (≈ 27 µg/mL) | 43 µM (≈ 20.4 µg/mL) | 49 µM (≈ 23.2 µg/mL) | MIC50 (M. smegmatis): 49 µM (≈ 23.2 µg/mL); MIC99 (M. smegmatis; read-out: MIC99 smegmatis): 62 µM (≈ 29.4 µg/mL) |
